According to the NIST ThermoML archive (doi:10.1016/j.jct.2015.06.009):

How the values were obtained:
[1] = refractive index (Na D-line) (dimensionless); settings: 298.15 K; 101.33 kPa; Liquid; Standard Abbe refractometry
[2] = 101 kPa, Liquid; for speed of sound: Frequency=3 MHz, Sing-around technique in a fixed-path interferometer; for mass density: Vibrating tube method
[3] = xn = mol fraction of the nth substance listed; settings: 101 kPa, Liquid; for speed of sound: Frequency=3 MHz, Sing-around technique in a fixed-path interferometer; for mass density: Vibrating tube method

COC(C)(C)C [2-methoxy-2-methylpropane]
Settings	refractive index
[1]	1.36648

[2]
Settings	mass density [kg/m3]	speed of sound [m/s]
298.15 K	735.21	1036.3
308.15 K	724.64	990.46
318.15 K	714	944.87
328.15 K	703.29	–

CCCCO [butan-1-ol]
Settings	refractive index
[1]	1.39733

[2]
Settings	mass density [kg/m3]	speed of sound [m/s]
298.15 K	805.73	1240
308.15 K	798.07	1206.6
318.15 K	790.37	1173.4
328.15 K	782.58	1140.4

CCCCO [butan-1-ol] + COC(C)(C)C
[3], x2 = 0
Settings	mass density [kg/m3]	speed of sound [m/s]
298.15 K	805.73	1240
308.15 K	798.07	1206.6
318.15 K	790.37	1173.4
328.15 K	782.58	1140.4

CCCCO [butan-1-ol] + Cc1ccccc1
[3]
Settings	mass density, 298.15 K [kg/m3]	mass density, 308.15 K [kg/m3]	mass density, 318.15 K [kg/m3]	mass density, 328.15 K [kg/m3]	speed of sound, 298.15 K [m/s]	speed of sound, 308.15 K [m/s]	speed of sound, 318.15 K [m/s]	speed of sound, 328.15 K [m/s]
x2 = 0.2008	818.72	810.48	802.18	793.77	1248	1212.2	1176.5	1141.2
x2 = 0.4064	830.53	821.82	813.05	804.18	1255.5	1217.6	1180.1	1143
x2 = 0.5993	840.92	831.87	822.79	813.62	1263.8	1224.6	1185.7	1147.5
x2 = 0.7995	851.36	842.08	832.78	823.42	1277.3	1237.1	1197.3	1158.2

Cc1ccccc1 [toluene]
Settings	refractive index
[1]	1.49393

[2]
Settings	mass density [kg/m3]	speed of sound [m/s]
298.15 K	862.18	1305.3
308.15 K	852.87	1262.5
318.15 K	843.58	1220.2
328.15 K	834.29	1178.5
